From ChEMBL document CHEMBL1201862, “PubChem BioAssay data set” (2004)
Calls of active or inactive are those of the source.

Assays:
[1] = molecular target: Voltage-gated N-type calcium channel alpha-1B subunit/Amyloid beta A4 precursor protein-binding family A member 1 (Homo sapiens, UniProt Q00975+Q02410); format: protein assay
ORF 73 = ORF 73 (Human herpesvirus 8, UniProt O40947); assay: KSHV LANA DNA-binding disruption – biochemical, fluorescence polarization, cherry-picked samples, dose response (AID 504725); design: species or system Human gammaherpesvirus 8;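 note: fluorescence polarization of a labeled DNA duplex reporting LANA DNA binding; potency is for inhibitors that block LANA binding to the DNA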
Sequence of ORF 73 (O40947 whole entry): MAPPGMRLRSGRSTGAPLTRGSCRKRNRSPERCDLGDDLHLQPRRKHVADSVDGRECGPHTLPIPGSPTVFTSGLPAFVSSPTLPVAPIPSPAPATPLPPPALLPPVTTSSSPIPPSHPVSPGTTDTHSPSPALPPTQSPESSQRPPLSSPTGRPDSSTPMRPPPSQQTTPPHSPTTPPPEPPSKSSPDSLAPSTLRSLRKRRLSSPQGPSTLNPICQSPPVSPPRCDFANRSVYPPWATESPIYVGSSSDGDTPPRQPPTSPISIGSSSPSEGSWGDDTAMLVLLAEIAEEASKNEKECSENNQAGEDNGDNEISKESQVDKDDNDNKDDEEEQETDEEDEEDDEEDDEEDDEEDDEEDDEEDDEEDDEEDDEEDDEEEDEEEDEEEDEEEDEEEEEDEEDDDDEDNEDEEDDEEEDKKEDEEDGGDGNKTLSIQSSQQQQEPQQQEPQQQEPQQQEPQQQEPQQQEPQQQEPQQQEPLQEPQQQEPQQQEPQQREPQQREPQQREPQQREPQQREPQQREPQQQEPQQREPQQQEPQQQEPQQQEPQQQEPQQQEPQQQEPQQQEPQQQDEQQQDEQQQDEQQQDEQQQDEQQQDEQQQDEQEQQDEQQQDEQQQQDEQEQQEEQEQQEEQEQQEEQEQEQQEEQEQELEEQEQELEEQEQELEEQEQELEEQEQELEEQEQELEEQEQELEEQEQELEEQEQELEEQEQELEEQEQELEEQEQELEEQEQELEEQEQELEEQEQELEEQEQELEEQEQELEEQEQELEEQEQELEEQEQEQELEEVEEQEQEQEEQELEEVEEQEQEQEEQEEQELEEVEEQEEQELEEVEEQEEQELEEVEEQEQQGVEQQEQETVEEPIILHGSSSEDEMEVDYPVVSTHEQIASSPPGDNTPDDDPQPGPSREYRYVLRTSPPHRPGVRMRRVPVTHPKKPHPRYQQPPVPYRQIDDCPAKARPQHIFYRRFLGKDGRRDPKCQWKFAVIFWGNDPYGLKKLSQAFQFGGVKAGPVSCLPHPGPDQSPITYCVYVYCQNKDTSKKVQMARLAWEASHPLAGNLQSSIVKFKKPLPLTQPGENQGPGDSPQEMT

[2] = molecular target: T1, Sphingosine 1-phosphate receptor 4 (Homo sapiens, UniProt O95977); assay: Fluorescence dose response cell-based high throughput screening assay for antagonists of the Sphingosine 1-Phosphate Receptor 4 (S1P4). [Related pubchem assays: 1524 (Confirmation in triplicates.), 1510 (Primary screen.)]; format: functional
T1 sequence (O95977 whole entry): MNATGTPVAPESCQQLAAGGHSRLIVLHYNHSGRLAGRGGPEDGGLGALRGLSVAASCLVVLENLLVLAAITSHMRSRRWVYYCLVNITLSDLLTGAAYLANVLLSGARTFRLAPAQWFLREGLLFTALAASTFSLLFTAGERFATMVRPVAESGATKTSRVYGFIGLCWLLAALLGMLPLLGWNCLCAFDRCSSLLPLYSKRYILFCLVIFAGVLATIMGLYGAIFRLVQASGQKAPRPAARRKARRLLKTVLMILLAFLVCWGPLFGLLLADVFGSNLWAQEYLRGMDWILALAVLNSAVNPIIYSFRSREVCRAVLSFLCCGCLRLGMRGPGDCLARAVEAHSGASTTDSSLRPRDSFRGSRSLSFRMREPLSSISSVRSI

[3] = molecular target: Sphingosine 1-phosphate receptor 1 (Homo sapiens, UniProt P21453); format: functional;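 note: Tango beta-arrestin reporter U2OS cells stimulated with S1P near its EC80; inhibitor potency meaning antagonism of receptor activation by the natural agonist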
Sequence of Sphingosine 1-phosphate receptor 1 (P21453 whole entry): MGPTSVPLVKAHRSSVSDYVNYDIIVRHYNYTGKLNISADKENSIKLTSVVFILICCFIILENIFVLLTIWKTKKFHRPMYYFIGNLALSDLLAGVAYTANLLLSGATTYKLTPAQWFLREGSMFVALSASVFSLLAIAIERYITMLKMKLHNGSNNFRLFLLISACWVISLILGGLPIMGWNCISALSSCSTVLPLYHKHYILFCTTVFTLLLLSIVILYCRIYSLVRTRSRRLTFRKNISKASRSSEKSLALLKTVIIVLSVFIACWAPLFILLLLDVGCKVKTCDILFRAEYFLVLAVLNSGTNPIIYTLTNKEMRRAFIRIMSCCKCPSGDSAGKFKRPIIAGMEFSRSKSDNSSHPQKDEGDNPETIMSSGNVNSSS

[4] = molecular target: Heat shock protein HSP 90-alpha (Homo sapiens, UniProt P07900); format: functional, organism-based
[5] = Fluorescence-based biochemical high throughput screening dose response assay to identify inhibitors of Crimean-Congo Hemorrhagic Fever (CCHF) viral ovarian tumor domain protease (vOTU): Pep-AMC substrate.
[6] = molecular target: Peroxisome proliferator-activated receptor gamma/Nuclear receptor coactivator 1 (Homo sapiens, UniProt P37231); assay: TR-FRET dose response biochemical High Throughput Screening assay for agonists of the steroid receptor coactivator 1 (SRC-1) recruitment by the peroxisome proliferator-activated receptor gamma (PPAR gamma): non-selective agonists. [Related pubchem assays (depositor defined):AID1300, AID1808, AID504735, AID631]; format: protein assay
[7] = molecular target: Neuropeptide Y receptor type 1 (Homo sapiens, UniProt P25929); format: functional;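 note: HEK293 cells with a CNG channel challenged with NPY then isoproterenol; potency as antagonist that reverses NPY suppression of cAMP signal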
Sequence of Neuropeptide Y receptor type 1 (P25929 whole entry): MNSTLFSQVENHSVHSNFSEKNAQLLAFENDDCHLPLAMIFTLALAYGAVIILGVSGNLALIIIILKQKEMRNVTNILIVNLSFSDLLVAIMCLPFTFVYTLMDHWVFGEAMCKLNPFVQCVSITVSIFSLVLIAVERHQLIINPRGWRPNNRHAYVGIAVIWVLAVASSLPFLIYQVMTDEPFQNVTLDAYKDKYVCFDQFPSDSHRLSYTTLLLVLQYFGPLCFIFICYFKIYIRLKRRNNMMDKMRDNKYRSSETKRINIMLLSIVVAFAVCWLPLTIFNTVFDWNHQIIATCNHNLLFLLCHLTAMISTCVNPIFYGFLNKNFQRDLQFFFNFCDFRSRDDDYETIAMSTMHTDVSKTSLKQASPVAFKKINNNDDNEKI

[8] = alpha-synuclein stem-loop luciferase translation blockers – H4 neuroglioma cells, luminescence, confirmation (AID 1988); format: functional, cell-based
BJ [9] = assay: cells; format: functional, cell-based; conditions: Homo sapiens
[10] = molecular target: G-protein coupled receptor 55 (Homo sapiens, UniProt Q9Y2T6); assay: inhibition of LPI-stimulated GPR55 beta-arrestin translocation – imaging, U2OS, beta-arrestin-GFP, LPI agonist, primary screen (AID 2013); format: functional;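 note: antagonist potency measured as reduced agonist-driven arrestin aggregation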
Sequence of G-protein coupled receptor 55 (Q9Y2T6 whole entry): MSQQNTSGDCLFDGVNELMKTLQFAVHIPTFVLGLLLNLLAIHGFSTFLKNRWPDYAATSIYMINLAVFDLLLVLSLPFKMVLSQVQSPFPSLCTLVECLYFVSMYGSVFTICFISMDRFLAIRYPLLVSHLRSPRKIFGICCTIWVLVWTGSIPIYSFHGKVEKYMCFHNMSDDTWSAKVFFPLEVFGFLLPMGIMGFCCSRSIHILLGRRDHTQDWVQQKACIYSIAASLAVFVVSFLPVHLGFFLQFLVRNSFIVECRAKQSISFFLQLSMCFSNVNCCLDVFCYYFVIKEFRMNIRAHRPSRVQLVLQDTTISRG

[11] = molecular target: Mothers against decapentaplegic homolog 3 (Homo sapiens, UniProt P84022); assay: inhibitors of SMAD-driven TGF-beta signaling – dose response (AID 715); format: functional
Sequence of Mothers against decapentaplegic homolog 3 (P84022 whole entry): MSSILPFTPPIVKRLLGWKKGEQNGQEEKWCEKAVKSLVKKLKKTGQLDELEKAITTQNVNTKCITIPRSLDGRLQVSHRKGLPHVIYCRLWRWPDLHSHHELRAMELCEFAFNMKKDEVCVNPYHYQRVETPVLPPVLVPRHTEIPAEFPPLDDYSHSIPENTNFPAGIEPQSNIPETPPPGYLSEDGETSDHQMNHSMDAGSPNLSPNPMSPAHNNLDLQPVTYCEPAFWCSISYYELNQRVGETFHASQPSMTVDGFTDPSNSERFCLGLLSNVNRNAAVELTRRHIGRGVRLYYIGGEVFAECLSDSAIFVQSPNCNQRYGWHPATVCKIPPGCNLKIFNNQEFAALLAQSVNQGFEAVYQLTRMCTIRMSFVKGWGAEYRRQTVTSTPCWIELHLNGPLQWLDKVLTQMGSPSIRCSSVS

[12] = molecular target: Peroxisome proliferator-activated receptor gamma/Nuclear receptor coactivator 2 (Homo sapiens, UniProt P37231); assay: TR-FRET dose response biochemical High Throughput Screening assay for agonists of the steroid receptor coactivator 2 (SRC-2) recruitment by the peroxisome proliferator-activated receptor gamma (PPAR gamma): non-selective agonists. [Related pubchem assays: 1297, 1032 ]; format: functional
Sequence of Peroxisome proliferator-activated receptor gamma/Nuclear receptor coactivator 2 (P37231 whole entry): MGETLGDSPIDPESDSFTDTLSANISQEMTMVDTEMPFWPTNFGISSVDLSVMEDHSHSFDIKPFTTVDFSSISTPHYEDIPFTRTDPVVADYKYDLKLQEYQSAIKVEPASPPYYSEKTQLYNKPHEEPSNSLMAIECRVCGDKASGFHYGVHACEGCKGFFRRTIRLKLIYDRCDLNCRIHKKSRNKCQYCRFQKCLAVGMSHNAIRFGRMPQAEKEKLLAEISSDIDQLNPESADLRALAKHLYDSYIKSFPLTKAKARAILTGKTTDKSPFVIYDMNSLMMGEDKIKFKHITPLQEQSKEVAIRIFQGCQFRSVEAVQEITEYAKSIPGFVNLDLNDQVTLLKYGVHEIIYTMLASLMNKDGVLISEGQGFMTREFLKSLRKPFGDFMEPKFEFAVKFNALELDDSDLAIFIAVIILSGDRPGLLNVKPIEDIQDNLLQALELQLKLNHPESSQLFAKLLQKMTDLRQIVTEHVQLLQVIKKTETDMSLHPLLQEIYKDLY
Sequence of Peroxisome proliferator-activated receptor gamma/Nuclear receptor coactivator 2 (Q15596 whole entry, further chain): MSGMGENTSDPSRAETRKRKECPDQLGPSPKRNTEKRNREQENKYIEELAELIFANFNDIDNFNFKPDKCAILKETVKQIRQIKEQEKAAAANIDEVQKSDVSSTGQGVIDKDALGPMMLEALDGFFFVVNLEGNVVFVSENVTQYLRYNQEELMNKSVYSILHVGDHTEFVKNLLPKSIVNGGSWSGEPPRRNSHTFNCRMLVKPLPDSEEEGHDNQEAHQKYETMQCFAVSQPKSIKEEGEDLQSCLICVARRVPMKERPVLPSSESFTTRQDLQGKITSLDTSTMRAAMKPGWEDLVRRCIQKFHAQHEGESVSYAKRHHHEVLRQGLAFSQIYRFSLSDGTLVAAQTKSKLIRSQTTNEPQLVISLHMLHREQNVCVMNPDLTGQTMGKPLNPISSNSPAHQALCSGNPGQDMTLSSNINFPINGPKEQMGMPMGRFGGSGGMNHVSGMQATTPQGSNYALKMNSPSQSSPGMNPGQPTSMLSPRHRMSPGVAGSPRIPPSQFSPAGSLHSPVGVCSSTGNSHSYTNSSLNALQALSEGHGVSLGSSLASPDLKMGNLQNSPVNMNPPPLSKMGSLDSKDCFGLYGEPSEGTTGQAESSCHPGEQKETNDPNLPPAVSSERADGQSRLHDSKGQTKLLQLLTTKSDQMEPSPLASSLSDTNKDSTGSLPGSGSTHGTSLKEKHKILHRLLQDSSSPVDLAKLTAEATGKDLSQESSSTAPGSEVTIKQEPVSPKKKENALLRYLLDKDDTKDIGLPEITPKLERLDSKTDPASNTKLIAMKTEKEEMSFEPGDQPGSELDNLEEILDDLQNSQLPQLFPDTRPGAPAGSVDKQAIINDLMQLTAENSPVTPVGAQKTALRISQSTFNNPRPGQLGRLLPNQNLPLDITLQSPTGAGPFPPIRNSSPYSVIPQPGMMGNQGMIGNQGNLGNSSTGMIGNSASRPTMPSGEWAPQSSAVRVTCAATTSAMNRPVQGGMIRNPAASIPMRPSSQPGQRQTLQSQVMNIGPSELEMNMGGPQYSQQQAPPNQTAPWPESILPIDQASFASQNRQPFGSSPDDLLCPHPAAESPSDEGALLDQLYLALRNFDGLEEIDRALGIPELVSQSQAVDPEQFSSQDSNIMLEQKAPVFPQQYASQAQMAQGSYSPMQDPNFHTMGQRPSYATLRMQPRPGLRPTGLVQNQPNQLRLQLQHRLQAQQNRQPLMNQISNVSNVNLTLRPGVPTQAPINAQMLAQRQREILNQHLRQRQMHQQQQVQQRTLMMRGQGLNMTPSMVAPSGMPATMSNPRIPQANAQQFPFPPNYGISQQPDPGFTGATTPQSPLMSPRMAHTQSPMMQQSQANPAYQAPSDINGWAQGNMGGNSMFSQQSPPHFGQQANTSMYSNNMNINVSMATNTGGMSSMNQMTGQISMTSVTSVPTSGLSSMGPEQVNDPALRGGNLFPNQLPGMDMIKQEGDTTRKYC

[13] = DRD fibroblast viability loss – cell-based, non-viral oncogenic, luminescence, dose response (AID 1934); format: functional; conditions: Homo sapiens
Streptococcus = assay: GAS UMAA2166 growth inhibition – luminescence, BacTiterGlo, counter-screen for streptokinase expression inhibitor project, dose response (AID 1915); format: functional, organism-based;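 note: potency for reduction of bacterial viability or growth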
[14] = Vero E6 cell cytotoxicity, dose response, cytotoxicity control for non-replicating M. tuberculosis project, secondary assay (AID 492998); format: functional, VeroE6; conditions: Vero C1008
BJ [15] = assay: growth inhibition of engineered Ras-driven BJ cells – cell-based, alamar blue fluorescence, cherrypicked samples, dose response (AID 2631); format: functional; conditions: Homo sapiens;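 note: confirmatory dose-response assay in RAS-dependent BJ fibroblasts engineered with TERT, LT and ST, with cytotoxicity read by fluorescence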
[16] = molecular target: Dual specificity tyrosine-phosphorylation-regulated kinase 1A (Rattus norvegicus, UniProt Q63470); format: biochemical, Homo sapiens
[17] = fluconazole-exposed Candida albicans growth modulators – fluorescence, retest, confirmation (AID 2467); format: functional, cell-based
[18] = Trypanosoma cruzi growth suppression in host cells – NIH3T3 host cells, beta-gal luminescence, confirmation (AID 2044); format: functional, cell-based;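 note: intracellular parasites grown in NIH/3T3 mouse fibroblasts as host cells; luminescent beta-galactosidase reporter signal from transgenic T. cruzi replicating inside host cells; inhibitors lower the luminescence signal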
[19] = molecular target: T2, Serine/threonine-protein phosphatase (Candida dubliniensis (strain CD36 / CBS 7987 / NCPF 3949 / NRRLY-17841) (Yeast), UniProt B9W6M3); assay: blockers of CaCl2-induced CDRE-lacZ signaling – S. cerevisiae, luminescence, secondary, dose response (AID 2388); format: functional, cell-based;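 note: yeast reporter cells carrying a calcineurin-responsive lacZ construct stimulated with calcium chloride; luminescent beta-galactosidase reporter signal in whole cells rather than isolated phosphatase activity; potency for inhibition where a drop in reporter signal means calcineurin blockade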
T2 sequence (B9W6M3 whole entry): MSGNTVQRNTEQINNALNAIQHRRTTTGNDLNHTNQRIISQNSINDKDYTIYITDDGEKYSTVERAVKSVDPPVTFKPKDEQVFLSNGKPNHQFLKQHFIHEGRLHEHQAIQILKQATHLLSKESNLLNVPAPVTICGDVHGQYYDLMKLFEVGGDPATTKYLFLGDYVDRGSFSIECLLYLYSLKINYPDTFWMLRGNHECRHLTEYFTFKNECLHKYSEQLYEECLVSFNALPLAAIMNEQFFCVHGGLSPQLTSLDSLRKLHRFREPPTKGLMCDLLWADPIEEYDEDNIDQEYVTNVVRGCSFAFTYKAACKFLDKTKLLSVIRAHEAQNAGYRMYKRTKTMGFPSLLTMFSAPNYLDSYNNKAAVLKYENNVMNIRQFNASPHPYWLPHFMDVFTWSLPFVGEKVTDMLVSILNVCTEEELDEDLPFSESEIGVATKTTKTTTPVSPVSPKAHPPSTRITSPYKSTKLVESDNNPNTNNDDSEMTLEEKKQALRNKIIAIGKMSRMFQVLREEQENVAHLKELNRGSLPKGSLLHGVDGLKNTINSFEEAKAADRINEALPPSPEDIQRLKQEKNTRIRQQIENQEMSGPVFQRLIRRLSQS

COc1cc(-c2ccc(Nc3ccccc3C(=O)O)c(OC)c2)ccc1Nc1ccccc1C(=O)O
IC50 [1]: 30 µM (active) | AC50 (ORF 73): 78.9 µM (active)

COC(CNC(=O)c1ccc2c3c(onc13)-c1ccccc1C2=O)OC
IC50 [2]: 1.63 µM (active) | IC50 [3]: 15.1 µM (not active)

Cc1ccc2nc(/C(C#N)=C\c3ccc([N+](=O)[O-])o3)[nH]c2c1
AC50 [4]: < 0.195 µM (active)

O=C(O)c1ccc(NC2=C/C(=N/S(=O)(=O)c3ccccc3)c3ccccc3C2=O)cc1
IC50 [5]: > 0.157 µM (active)

Nc1ccc2c(c1)C(=O)C(=O)c1ccccc1-2
EC50 [6]: 12.3 µM (inactive) | IC50 [7]: 4.54 µM (active) | EC50 [8]: > 120 µM (not active) | EC50 (BJ [9]): 4.11 µM (active) | IC50 [10]: 1.36 µM (active) | IC50 [11]: 9.89 µM (active) | EC50 [12]: 12.1 µM (not active) | EC50 [13]: 4.42 µM (active) | EC50 (Streptococcus): 4.95 µM (active) | CC50 [14]: 1.81 µM (active) | EC50 (BJ [15]): 2.8 µM (active) | AC50 [16]: 0.547 µM (active)

CCCC(=O)NC(c1ccccc1OC)c1ccc2cccnc2c1O (stereo unspecified)
EC50 [17]: 0.476 µM (active) | EC50 [18]: 0.532 µM (active) | EC50 [19]: > 180 µM (inactive)
